Results from patent US20100298141A1, “SUBSTITUTED PYRIDINE N-OXIDE HERBICIDES” (E. I. DU PONT DE NEMOURS AND COMPANY, priority 2007, published 2010).

Key:
Italian ryegrass = test: Test C pre-/postemergence test; format: in vivo, Lolium multiflorum; details: for Plant response rating (0 to 100), Ryegrass, Italian / Plant response rating, Ryegrass, Italian: Postemergence; for Plant response rating, Ryegrass, Italian: scale 0 to 100, 0 no effect, 100 complete control
Method in brief: (§1)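 Compounds in a non-phytotoxic solvent with surfactant applied preemergence to seeded pots and, at the same time, postemergence to plants 2–18 cm tall (1- to 4-leaf stage). Paddy tests: pots flooded to 3 cm, compound applied into the water, depth held throughout.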

[1] = test system: common (oilseed) sunflower; test: Test C pre-/postemergence test; format: in vivo, Helianthus annuus
Method in brief: as §1

kochia = test: Test C pre-/postemergence test; format: in vivo, Kochia scoparia
Method in brief: as §1

barnyardgrass [2] = test: Test A pre-/postemergence greenhouse test; format: in vivo, Echinochloa crus-galli; details: for Plant response rating, Barnyardgrass: 0 to 100 scale where 0 is no effect and 100 is complete control; for Barnyardgrass plant response rating: 0 to 100 scale
Method in brief: (§2)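 Herbicidal effect is a visual injury score given about ten days post-treatment by comparison with untreated controls. Preemergence plots received a directed spray onto sown loam–sand soil; postemergence plants, at the one- to two-leaf stage and 2–10 cm tall, were sprayed at the same time.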

morningglory = test: Test A pre-/postemergence greenhouse test; format: in vivo, Ipomoea spp.; details: for Plant response rating, Morningglory: 0 to 100 scale where 0 is no effect and 100 is complete control; for Morningglory plant response rating: 0 to 100 scale
Method in brief: as §2

soybean = test: Test C pre-/postemergence test; format: in vivo, Glycine max
Method in brief: as §1

Goosegrass = test: Test C pre-/postemergence test; format: in vivo, Eleusin indica
Method in brief: as §1

crabgrass [3] = test: Test C pre-/postemergence test; format: in vivo, Digitaria sanguinalis
Method in brief: as §1

crabgrass [4] = test: Test A pre-/postemergence greenhouse test; format: in vivo, Digitaria sanguinalis; details: for Plant response rating, Crabgrass, Large: 0 to 100 scale where 0 is no effect and 100 is complete control; for Crabgrass, Large plant response rating: 0 to 100 scale
Method in brief: as §2

pigweed = test: Test C pre-/postemergence test; format: in vivo, Amaranthus retroflexus
Method in brief: as §1

bermudagrass = test: Test C pre-/postemergence test; format: in vivo, Cynodon dactylon
Method in brief: as §1

umbrella sedge = test: Test C flooded paddy test; format: in vivo, Cyperus difformis; details: Flood
Method in brief: (§3)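 Test compounds are applied straight into paddy water held 3 cm above the soil surface, with that flood maintained for the whole test. After 13 to 15 days in the greenhouse, each species is scored visually relative to controls.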

giant foxtail = test: Test A pre-/postemergence greenhouse test; format: in vivo, Setaria faberi; details: for Plant response rating, Foxtail, Giant: 0 to 100 scale where 0 is no effect and 100 is complete control; for Foxtail, Giant plant response rating: 0 to 100 scale
Method in brief: as §2

lambsquarters = test: Test C pre-/postemergence test; format: in vivo, Chenopodium album; details: Postemergence; for Plant response rating, Lambsquarters: scale 0 to 100, 0 no effect, 100 complete control
Method in brief: as §1

Surinam grass = test: Test C pre-/postemergence test; format: in vivo, Brachiaria decumbens
Method in brief: as §1

cocklebur = test: Test C pre-/postemergence test; format: in vivo, Xanthium strumarium; details: for Plant response rating, Cocklebur: scale 0 to 100, 0 no effect, 100 complete control
Method in brief: as §1

barnyardgrass [5] = test: Test C flooded paddy test; format: in vivo, Echinochloa crus-galli; details: Flood
Method in brief: as §3

[6] = 62 g ai/ha, Preemergence, scale 0 to 100
[7] = 125 g ai/ha, preemergence, scale 0 (no effect) to 100 (complete control)
[8] = preemergence, 250 g ai/ha, scale 0 (no effect) to 100 (complete control)
[9] = Preemergence, 31 g ai/ha, scale 0 to 100 (0 no effect, 100 complete control)
[10] = Postemergence, 62 g ai/ha, scale 0 to 100, 0 no effect, 100 complete control
[11] = Postemergence, 125 g ai/ha, scale 0 to 100, 0 no effect, 100 complete control
[12] = Postemergence, 250 g ai/ha, scale 0 to 100, 0 no effect, 100 complete control
[13] = Postemergence, 500 g ai/ha, 0 is no effect, 100 is complete control
[14] = Preemergence, 125 g ai/ha, 0 no effect, 100 complete control
[15] = 62 g ai/ha, scale 0 to 100 (0 no effect, 100 complete control)
[16] = 250 g ai/ha, scale 0 to 100, 0 no effect, 100 complete control, 13 to 15 days

CCn1nc(C(F)(F)F)c(CS(=O)(=O)c2cc(C)cc[n+]2[O-])c1OCC(F)(F)F [Compound 64]
55: Plant response rating, Goosegrass (Goosegrass; [12])
60: Morningglory plant response rating (morningglory; [13])
0: Plant response rating (0 to 100), Ryegrass, Italian (Italian ryegrass; 31 g ai/ha) | Plant response rating (0 to 100), Ryegrass, Italian (Italian ryegrass; 62 g ai/ha) | Plant response rating, Sunflower [1, 9] | Plant response rating (0 to 100), Kochia (kochia; Postemergence, 31 g ai/ha) | Plant response rating, Kochia (kochia; [10]) | Plant response rating, Kochia (kochia; [11]) | Plant response rating, Kochia (kochia; [12]) | Plant response rating, Soybean (soybean; [9]) | Plant response rating (0 to 100), Goosegrass (Goosegrass; Postemergence, 31 g ai/ha) | Plant response rating, Goosegrass (Goosegrass; [10]) | Plant response rating, Goosegrass (Goosegrass; [11]) | Plant response rating (0 to 100), Crabgrass, Large (crabgrass [3]; Postemergence, 31 g ai/ha) | Plant response rating, Crabgrass, Large (crabgrass [3]; [10]) | Plant response rating, Crabgrass, Large (crabgrass [3]; [11]) | Plant response rating (0 to 100), Pigweed (pigweed; Postemergence, 31 g ai/ha) | Plant response rating (0 to 100), Pigweed (pigweed; Postemergence, 62 g ai/ha) | Plant response rating, Pigweed (pigweed; [11]) | Plant response rating (0 to 100), Bermudagrass (bermudagrass; Postemergence, 31 g ai/ha) | Plant response rating, Bermudagrass (bermudagrass; [10]) | Plant response rating, Bermudagrass (bermudagrass; [11]) | Plant response rating (0 to 100), Lambsquarters (lambsquarters; 31 g ai/ha) | Plant response rating, Lambsquarters (lambsquarters; 62 g ai/ha) | Plant response rating, Lambsquarters (lambsquarters; 125 g ai/ha) | Plant response rating, Lambsquarters (lambsquarters; 250 g ai/ha) | Plant response rating (0 to 100), Surinam Grass (Surinam grass; Postemergence, 31 g ai/ha) | Plant response rating (0 to 100), Surinam Grass (Surinam grass; Postemergence, 62 g ai/ha) | Plant response rating, Surinam Grass (Surinam grass; [11]) | Cocklebur plant response rating (cocklebur; [6]) | Cocklebur plant response rating (cocklebur; [7]) | Plant response rating (0 to 100), Cocklebur (cocklebur; Postemergence, 31 g ai/ha) | Plant response rating, Cocklebur (cocklebur; Postemergence, 62 g ai/ha) | Plant response rating, Cocklebur (cocklebur; Postemergence, 125 g ai/ha) | Plant response rating, Cocklebur (cocklebur; Postemergence, 250 g ai/ha) | Plant response rating, Barnyardgrass (barnyardgrass [5]; [15])
5: Plant response rating, Pigweed (pigweed; [12])
40: Plant response rating, Bermudagrass (bermudagrass; [12]) | Plant response rating, Surinam Grass (Surinam grass; [12])
20: Soybean plant response rating (soybean; [6]) | Plant response rating, Crabgrass, Large (crabgrass [3]; [12]) | Plant response rating, Barnyardgrass (barnyardgrass [5]; [16])
80: Sunflower plant response rating [1, 7] | Plant response rating, Morningglory (morningglory; Preemergence, 500 g ai/ha) | Soybean plant response rating (soybean; [8]) | Plant response rating, Crabgrass, Large (crabgrass [4]; Postemergence, 125 g ai/ha) | Crabgrass, Large plant response rating (crabgrass [4]; [14]) | Plant response rating, Sedge, Umbrella (umbrella sedge; [15]) | Plant response rating, Foxtail, Giant (giant foxtail; Postemergence, 125 g ai/ha)
98: Plant response rating, Crabgrass, Large (crabgrass [3]; [9])
30: Plant response rating, Ryegrass, Italian (Italian ryegrass; 125 g ai/ha) | Sunflower plant response rating [1, 6] | Plant response rating, Morningglory (morningglory; Postemergence, 125 g ai/ha) | Morningglory plant response rating (morningglory; [14]) | Plant response rating, Soybean (soybean; [11])
90: Ryegrass, Italian plant response rating (Italian ryegrass; [7]) | Plant response rating, Barnyardgrass (barnyardgrass [2]; Postemergence, 125 g ai/ha) | Barnyardgrass plant response rating (barnyardgrass [2]; [13]) | Crabgrass, Large plant response rating (crabgrass [4]; [13]) | Foxtail, Giant plant response rating (giant foxtail; [13])
95: Sunflower plant response rating [1, 8] | Plant response rating, Goosegrass (Goosegrass; [9]) | Pigweed plant response rating (pigweed; [6]) | Plant response rating, Pigweed (pigweed; [9]) | Plant response rating, Surinam Grass (Surinam grass; [9])
45: Plant response rating, Ryegrass, Italian (Italian ryegrass; 250 g ai/ha)
25: Plant response rating (0 to 100), Soybean (soybean; Postemergence, 31 g ai/ha) | Plant response rating (0 to 100), Soybean (soybean; Postemergence, 62 g ai/ha)
50: Ryegrass, Italian plant response rating (Italian ryegrass; [6])
35: Plant response rating, Soybean (soybean; [12])
70: Barnyardgrass plant response rating (barnyardgrass [2]; [14]) | Soybean plant response rating (soybean; [7])
100: Ryegrass, Italian plant response rating (Italian ryegrass; [8]) | Kochia plant response rating (kochia; [6]) | Kochia plant response rating (kochia; [7]) | Plant response rating, Kochia (kochia; [9]) | Kochia plant response rating (kochia; [8]) | Plant response rating, Barnyardgrass (barnyardgrass [2]; Preemergence, 500 g ai/ha) | Goosegrass plant response rating (Goosegrass; [6]) | Goosegrass plant response rating (Goosegrass; [7]) | Goosegrass plant response rating (Goosegrass; [8]) | Crabgrass, Large plant response rating (crabgrass [3]; [6]) | Crabgrass, Large plant response rating (crabgrass [3]; [7]) | Crabgrass, Large plant response rating (crabgrass [3]; [8]) | Plant response rating, Crabgrass, Large (crabgrass [4]; Preemergence, 500 g ai/ha) | Pigweed plant response rating (pigweed; [7]) | Pigweed plant response rating (pigweed; [8]) | Bermudagrass plant response rating (bermudagrass; 62 g ai/ha, Preemergence, scale 0 to 100 (0 no effect, 100 complete control)) | Bermudagrass plant response rating (bermudagrass; [7]) | Plant response rating, Bermudagrass (bermudagrass; [9]) | Bermudagrass plant response rating (bermudagrass; [8]) | Plant response rating, Sedge, Umbrella (umbrella sedge; [16]) | Foxtail, Giant plant response rating (giant foxtail; [14]) | Plant response rating, Foxtail, Giant (giant foxtail; Preemergence, 500 g ai/ha) | Surinam Grass plant response rating (Surinam grass; [6]) | Surinam Grass plant response rating (Surinam grass; [7]) | Surinam Grass plant response rating (Surinam grass; [8])
